From PMC7617869, “Molecular glues that inhibit deubiquitylase activity and inflammatory signaling” (Nature Structural & Molecular Biology, 2025)
Where “and” joins values, the source holds several entries; their conditions need not be identical. Equal values may be shown once.

Legend:
BRISC (FL) = molecular target: T1, BRISC (FL) (Homo sapiens, UniProt P46736+Q15018+Q9NXR7); assay: In-gel deubiquitylation assay, TAMRA-labeled K63-tetraubiquitin, BRISC; type: biochemical; settings: 10 μM or 100 μM inhibitor
T1 construct: full-length BRISC (FL), ARISC (FL); made in house; host or cells: Spodoptera frugiperda Sf9 insect cells (MultiBac)
Description: The inhibitor capzimin (Merck) was diluted in 1 mM DTT and incubated for 30 min at room temperature to reduce disulfide bonds required for inhibitor activity. […] DUBs were incubated with 750 nM TAMRA-labeled K63-tetraubiquitin (LifeSensors, SI6304T) for 10 min at 30 °C. Reactions were quenched by adding 2.5 μl of 4× SDS–PAGE loading dye (240 mM Tris-HCl pH 6.8, 40% v/v glycerol, 8% w/v SDS, 0.04% w/v bromophenol blue and 5% v/v β-mercaptoethanol). The samples were resolved on 4–12% NuPAGE Bis–Tris gels (Thermo Fisher Scientific). Gels were scanned using an iBright FL 1500 (Thermo Fisher Scientific) (excitation, 515–545 nm; emission, 568–617 nm; exposure, 500 ms).

[1] = test system: ISG expression in SSc PBMCs; assay: SSc PBMC type I IFN signaling gene expression array, unstimulated; type: cell-based, human
Description: PBMCs in vitro experiments
Peripheral blood mononuclear cells (PBMCs) from healthy and SSc donors were separated using density gradient method (Leucosep™, Greiner Bio-One International) from EDTA anticoagulated peripheral blood; isolated cells were washed twice by PBS. PBMCs were then incubated in RPMI1640 […]
For healthy PBMCs, cells were stimulated with 20 ng/mL of IFN (+/- compounds or DMSO). For SSc PBMCs, cells were in basal conditions with no additional IFN stimulation. Cells were centrifuged at 300 g for 10 minutes. […]
RNA was extracted from cell pellets using TRIzol™ (ThermoFisher
Scientific, Waltham, MA) and processed using Quick-RNA Miniprep Kit (Zymo Research) as per the manufacturer’s instruction.
For Type I IFN signalling analysis, the human IFN I RT2 Profiler PCR Array (Qiagen, PAMM-016ZE) was performed on available RNA from healthy (n=3) and SSc (n=9) donors. RNA was converted to cDNA using RT2 First Strand Kit (Qiagen). Next, the cDNA was mixed with RT2 SYBR Green Mastermix (Qiagen, Venlo). Successful PCR performance was confirmed by assay tests for genomic DNA contamination, RNA sample quality, as well as single melt curve determination and <35 Ct for each gene, leading to validated gene expression of 67 genes. Relative expression for each gene was determined, firstly by ∆CT calculated using the geometric mean of 4 housekeeping genes (ACTB, GAPDH, HPRT1, RPLP0), followed by 2^(-∆CT), and expressed as fold change to control, according to manufacturer’s guidance. IFN2α-induced ISGs in healthy donors were determined using a Student’s t-test (two-tail distribution and equal variances) on the triplicate fold change in 2^(-ΔCT) values between […]
donors). Heatmaps were generated using the “pheatmap” function in R (v4.0.2) and RStudio (v1.3.1093) applying row scaling to standardise the expression data across samples (R core team 2020.
R Foundation for Statistical Computing). The IFN2α inducible genes determined in healthy donors […]
171-C. To account for Type I IFN signalling heterogeneity across samples, the mean 2^(-∆CT) for each […]
relative gene expression, illustrated as a fold change and visualised in log2. The Type I IFN signalling array data for the patient samples is included in Source Data Figure 6, Extended Data Fig. 9.

[2] = unstimulated PBMCs from SSc patients, one value per patient (P1-P9)

## O=C(NC1CCNCC1)c1nn(C(=O)c2c(Cl)cccc2Cl)cc1NC(=O)c1c(Cl)cccc1Cl [JMS-175-2]
BRISC (FL)
  inhibition of BRISC cleavage of K63-linked tetraubiquitin: inhibit
[1]; SSc PBMCs (n = 9), 2 µM, 16 h
  number of ISGs (of 34) reduced compared to AP-5-145: 22
[1]; [2]
  ADAR, Type I IFN signalling array raw data: 3.812 and 3.743 and 4.113 and 4.435 and 3.832 and 4.965 and 3.1007 and 4.473 and 4.363
  BST2, Type I IFN signalling array raw data: 2.634 and 3.889 and 3.072 and 2.87 and 3.494 and 3.795 and 4.633 and 2.6092 and 2.483
  CASP1, Type I IFN signalling array raw data: 1.213 and 2.812 and 2.398 and 2.039 and 1.156 and 2.52 and 2.747 and 2.114 and 1.958
  CD86, Type I IFN signalling array raw data: 3.228 and 5.906 and 3.901 and 5.361 and 5.149 and 4.521 and 6.493 and 4.685 and 4.196
  CXCL10, Type I IFN signalling array raw data: 8.71 and 7.706 and 4.205 and 4.635 and 4.659 and 4.1108 and 5.782 and 5.515 and 4.585
  DDX58, Type I IFN signalling array raw data: 2.743 and 2.94 and 3.022 and 3.298 and 2.839 and 3.98 and 3.519 and 2.665 and 2.269
  GBP1, Type I IFN signalling array raw data: 2.158 and 2.728 and 1.98 and 1.48 and 2.261 and 1.7592 and 1.143 and 2.383 and 0.7799
  IFI6, Type I IFN signalling array raw data: 2.425 and 3.947 and 3.076 and 2.468 and 2.755 and 3.753 and 4.379 and 1.895 and 1.403
  IFI16, Type I IFN signalling array raw data: 2.049 and 1.794 and 2.214 and 1.769 and 1.846 and 2.52 and 0.8721 and 1.744 and 1.344
  IFIH1, Type I IFN signalling array raw data: 4.067 and 4.072 and 3.5554 and 2.793 and 3.2049 and 5.377 and 3.587 and 3.865 and 3.376
  IFIT1, Type I IFN signalling array raw data: 6.813 and 5.481 and 4.387 and 3.431 and 4.758 and 6.993 and 4.645 and 3.607 and 3.511
  IFIT2, Type I IFN signalling array raw data: 3.877 and 4.276 and 4.33 and 2.588 and 4.403 and 4.745 and 2.229 and 3.19 and 2.838
  IFIT3, Type I IFN signalling array raw data: 4.821 and 4.968 and 3.571 and 2.478 and 4.365 and 4.923 and 2.496 and 2.53 and 2.343
  IFITM1, Type I IFN signalling array raw data: 1.018 and 0.9593 and 1.422 and 1.403 and 1.369 and 1.662 and 1.509 and 1.105 and 0.5587
  IFITM2, Type I IFN signalling array raw data: 4.116 and 4.7 and 5.192 and 4.824 (2×) and 4.737 and 4.678 and 5.159 and 5.095
  IFITM3, Type I IFN signalling array raw data: 2.916 and 4.165 and 3.837 and 2.08 and 3.733 and 4.352 and 4.508 and 1.719 and 2.211
  IRF1, Type I IFN signalling array raw data: 1.526 and 2.165 and 1.923 and 0.6715 and 1.654 and 1.161 and 1.159 and 2.105 and 0.7689
  IRF7, Type I IFN signalling array raw data: 5.385 and 5.096 and 5.885 and 3.925 and 5.478 and 5.126 and 4.9117 and 4.798 and 3.676
  IRF9, Type I IFN signalling array raw data: 1.63 and 2.363 and 2.229 and 1.688 and 2.545 and 2.717 and 2.001 and 1.778 and 1.074
  ISG15, Type I IFN signalling array raw data: 7.828 and 5.157 and 3.914 and 1.97 and 4.252 and 5.488 and 3.54 and 2.475 and 2.54
  ISG20, Type I IFN signalling array raw data: 2.454 and 3.36 and 3.266 and 3.42 and 2.95 and 3.395 and 3.115 and 4.07 and 2.362
  MX1, Type I IFN signalling array raw data: 4.39 and 3.317 and 4.478 and 2.343 and 4.002 and 5.299 and 4.681 and 3.297 and 2.96
  MX2, Type I IFN signalling array raw data: 4.119 and 3.616 and 4.1617 and 3.303 and 3.807 and 5.104 and 3.9466 and 3.181 and 2.652
  MYD88, Type I IFN signalling array raw data: 2.47 and 3.66 and 3.439 and 3.359 and 3.397 and 3.681 and 4.188 and 3.514 and 3.446
  NMI, Type I IFN signalling array raw data: 1.562 and 2.473 and 2.043 and 2.157 and 2.037 and 2.367 and 1.861 and 2.107 and 1.945
  OAS1, Type I IFN signalling array raw data: 3.9946 and 5.08 and 3.975 and 3.103 and 3.832 and 4.439 and 4.753 and 3.122 and 2.562
  OAS2, Type I IFN signalling array raw data: 4.012 and 3.3146 and 4.469 and 3.575 and 4.215 and 3.938 and 4.568 and 3.269 and 1.99
  PML, Type I IFN signalling array raw data: 3.464 and 4.0817 and 4.578 and 3.206 and 4.344 and 4.48 and 3.583 and 3.774 and 3.137
  SOCS1, Type I IFN signalling array raw data: 3.527 and 3.231 and 4.351 and 3.055 and 4.321 and 4.161 and 3.784 and 3.314 and 2.261
  STAT1, Type I IFN signalling array raw data: 0.658 and 1.171 and -0.3774 and -0.03547 and 0.5032 and 0.1577 and 0.4735 and 0.157 and -0.9535
  STAT2, Type I IFN signalling array raw data: 3.702 and 3.438 and 3.148 and 3.834 and 3.166 and 3.676 and 3.7416 and 3.178 and 2.42
  STAT3, Type I IFN signalling array raw data: 1.85 and 1.467 and 4.524 and 1.728 and 2.05 and 2.151 and 1.4 and 1.718 and 1.637
  TAP1, Type I IFN signalling array raw data: 1.739 and 1.988 and 2.594 and 1.8192 and 2.316 and 2.659 and 1.447 and 2.0534 and 1.014
  TNFSF10, Type I IFN signalling array raw data: 2.971 and 3.81 and 3.83 and 3.393 and 3.712 and 3.506 and 3.8599 and 3.839 and 2.706
